Here are results for 17 compounds from patent publication US20230382924A1, “MODULATORS OF CYSTIC FIBROSIS TRANSMEMBRANE CONDUCTANCE REGULATOR” (VERTEX PHARMACEUTICALS INCORPORATED, priority 2020, published 2023).

SMILES strings stand for the structures. Where only a bound is given, the exact number is not on record here.

In assay [1] the target is T1, CFTR (Homo sapiens, UniProt P13569). Kind of assay: Membrane Potential Dye, Enteroid Assay A. Format: cell-based. The conditions noted are these: for EC50: read-out: Ent. A EC50. The method, boiled down:
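Enteroid cells were loaded with methyl oxonol membrane potential dye (plus CaCCinh-A01 and Chicago Sky Blue) for 25 min at room temperature. Chloride transport was started by switching to chloride-free gluconate stimulation solution, with fluorescence read for 15 min. Activity was expressed as % of a triple-combination CFTR modulator control (3 μM, 3 μM, 300 nM acute).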

For assay [2], the target named is T1, CFTR. Kind of assay: Membrane Potential Dye, Enteroid Assay B. The conditions noted are these: for EC50: read-out: Ent. B EC50. Format: cell-based. As to the method:
Base medium (ADF+++) consisted of Advanced DMEM/Ham's F12, 2 mM Glutamax, 10 mM HEPES, […] penicillin/streptomycin.
Bath 1 Buffer consisted of 1 mM MgCl2, 160 mM NaCl, 4.5 mM KCl, 10 mM HEPES, 10 mM Glucose, 2 mM CaCl2).
Chloride Free Buffer consisted of 1 mM Magnesium Gluconate, 2 mM Calcium Gluconate, 4.5 mM Potassium Gluconate, 160 mM Sodium Gluconate, 10 mM HEPES, 10 mM Glucose.
Bath 1 Dye Solution consisted of Bath 1 Buffer, 0.04% Pluronic F127, 20 μM Methyl Oxonol, 30 μM CaCCinh-A01, 30 μM Chicago Sky Blue.
Chloride Free Dye Solution consisted of Chloride Free Buffer, 0.04% Pluronic F127, 20 μM Methyl Oxonol, 30 μM CaCCinh-A01, 30 μM Chicago Sky Blue.
3. Enteroid Cell Harvesting and Seeding
Cells were recovered in cell recovery solution, collected by centrifugation at 650 rpm for 5 min at 4° C., resuspended in TryPLE and incubated for 5 min at 37° C. Cells were then collected by centrifugation at 650 rpm for 5 min at 4° C. and resuspended in IEMM containing 10 μM ROCK inhibitor (RI).
5. Membrane Potential Dye, Enteroid Assay B
Briefly, cells were washed 5 times in Bath 1 Buffer. Bath 1 Dye Solution was added and the cells were incubated for 25 min at room temperature. Following dye incubation, cells were washed 3 times in Chloride Free Dye Solution. Chloride transport was initiated by addition of Chloride Free Dye Stimulation Solution and the fluorescence signal was read for 15 min.

T1 sequence (P13569 with tags, fused parts or gaps DEL508-508): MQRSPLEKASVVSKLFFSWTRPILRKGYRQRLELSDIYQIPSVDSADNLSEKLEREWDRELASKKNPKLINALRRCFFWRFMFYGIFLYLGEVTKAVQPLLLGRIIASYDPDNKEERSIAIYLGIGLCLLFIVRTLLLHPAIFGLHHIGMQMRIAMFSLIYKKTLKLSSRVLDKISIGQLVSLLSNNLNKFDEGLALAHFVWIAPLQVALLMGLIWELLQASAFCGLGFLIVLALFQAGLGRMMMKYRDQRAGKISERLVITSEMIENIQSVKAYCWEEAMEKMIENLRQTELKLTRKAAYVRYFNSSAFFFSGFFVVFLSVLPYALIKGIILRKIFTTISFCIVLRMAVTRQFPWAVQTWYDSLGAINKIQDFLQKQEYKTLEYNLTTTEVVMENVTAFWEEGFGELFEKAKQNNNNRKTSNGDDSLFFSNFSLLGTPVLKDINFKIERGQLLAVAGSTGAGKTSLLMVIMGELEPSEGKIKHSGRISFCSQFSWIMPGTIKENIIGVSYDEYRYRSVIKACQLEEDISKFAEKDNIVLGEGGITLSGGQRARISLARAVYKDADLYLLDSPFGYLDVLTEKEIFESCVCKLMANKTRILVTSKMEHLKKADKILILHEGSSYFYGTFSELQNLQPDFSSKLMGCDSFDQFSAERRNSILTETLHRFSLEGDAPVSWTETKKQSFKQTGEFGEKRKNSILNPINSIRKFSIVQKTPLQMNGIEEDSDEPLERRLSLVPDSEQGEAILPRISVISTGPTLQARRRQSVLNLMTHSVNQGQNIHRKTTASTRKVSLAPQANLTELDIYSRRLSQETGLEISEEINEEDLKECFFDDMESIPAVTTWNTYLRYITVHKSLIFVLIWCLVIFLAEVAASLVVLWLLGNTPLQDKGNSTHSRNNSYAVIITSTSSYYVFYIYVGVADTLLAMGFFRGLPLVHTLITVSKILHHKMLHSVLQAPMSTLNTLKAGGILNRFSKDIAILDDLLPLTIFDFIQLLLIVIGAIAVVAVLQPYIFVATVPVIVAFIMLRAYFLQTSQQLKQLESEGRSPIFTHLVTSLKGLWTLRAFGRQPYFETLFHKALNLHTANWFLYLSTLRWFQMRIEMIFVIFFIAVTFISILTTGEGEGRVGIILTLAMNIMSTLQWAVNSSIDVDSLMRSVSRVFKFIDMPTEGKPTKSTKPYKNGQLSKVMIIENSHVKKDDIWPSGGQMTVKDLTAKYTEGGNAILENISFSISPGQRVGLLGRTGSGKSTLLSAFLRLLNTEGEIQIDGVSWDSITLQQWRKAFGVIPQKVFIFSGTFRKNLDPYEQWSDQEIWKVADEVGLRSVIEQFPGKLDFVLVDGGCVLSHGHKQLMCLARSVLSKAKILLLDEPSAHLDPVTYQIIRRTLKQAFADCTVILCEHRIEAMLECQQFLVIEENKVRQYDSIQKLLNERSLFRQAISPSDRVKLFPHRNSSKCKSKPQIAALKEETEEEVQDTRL

As to `Cc1cccc(C)c1-c1cc2nc(n1)NS(=O)(=O)c1cccc(c1)C(=O)NC[C@H](c1ccc(C(C)(C)C)cc1)O2` (single isomer, unassigned) [Compound 4], in assay [1] (Table 8), the “Ent. A Max Activity” value is given as “+ (+ is <30%)” and the concentration giving a half-maximal response (EC50) fell in the range of 3000 to 30000 nM. In assay [2] (Table 8), the “Ent. B Max Activity” value is listed as “+ (+ is <30%)”.

`Cc1cccc(C)c1-c1cc2nc(n1)NS(=O)(=O)c1cccc(c1)C(=O)NCC(c1ccc(C3(C(F)(F)F)CC3)cc1)O2` (single isomer, unassigned) [Compound 11, 6-(2,6-Dimethylphenyl)-2,2-dioxo-10-[4-[1-(trifluoromethyl)cyclopropyl]phenyl]-9-oxa-2λ^6-thia-3,5,12,19-tetrazatricyclo[12.3.1.14,8]nonadeca-1(18),4(19),5,7,14,16-hexaen-13-one]: in assay [1] (Table 8), the “Ent. A Max Activity” value is “+++ (+++ is >60%)” and the EC50 is less than 1000 nM. In assay [2] (Table 8), the “Ent. B Max Activity” value was “+++ (+++ is >60%)” and the half-maximal effective concentration (EC50) is less than 1000 nM.

On to `Cc1cccc(C)c1-c1cc2nc(n1)NS(=O)(=O)c1cccc(c1)C(=O)NCC(c1ccc([Si](C)(C)C)cc1)O2` (single isomer, unassigned) [Compound 17, 6-(2,6-dimethylphenyl)-2,2-dioxo-10-(4-trimethylsilylphenyl)-9-oxa-2λ^6-thia-3,5,12,19-tetrazatricyclo[12.3.1.14,8]nonadeca-1(18),4(19),5,7,14,16-hexaen-13-one], for which the EC50 in assay [1] (Table 9) and in assay [2] (Table 9) was less than 1000 nM in each case.

As for `Cc1cccc(C)c1-c1cc2nc(n1)NS(=O)(=O)c1cccc(c1)C(=O)N[C@H](CC(C)C)[C@@H](c1ccc(C(C)(C)C)cc1)O2` (single isomer, unassigned) [Compound 39], in assay [1] (Table 9), the “Ent. A Max Activity” value is given as “+++ (+++ is >60%)” and the concentration for a half-maximal effect (EC50) is less than 1000 nM. Further, in assay [2] (Table 9), the “Ent. B Max Activity” value is reported as “+++ (+++ is >60%)” and the EC50 is less than 1000 nM.

As to `Cc1cccc(C)c1-c1cc2nc(n1)NS(=O)(=O)c1cccc(c1)C(=O)N[C@H](CC(C)C)[C@@H](c1ccc(C(C)(C)C)cc1)O2` (single isomer, unassigned) [Compound 40], in assay [1] (Table 9), the “Ent. A Max Activity” value was “+++ (+++ is >60%)” and the EC50 is less than 1000 nM. Also, the “Ent. B Max Activity” value in assay [2] (Table 9) is listed as “+++ (+++ is >60%)”.

Consider `Cc1cccc(C)c1-c1cc2nc(n1)NS(=O)(=O)c1cccc(c1)C(=O)N[C@@H](CC13CC4CC(CC(C4)C1)C3)CO2` (single isomer, unassigned) [Compound 110, 11-(1-adamantylmethyl)-6-(2,6-dimethylphenyl)-2,2-dioxo-9-oxa-2λ^6-thia-3,5,12,19-tetrazatricyclo[12.3.1.14,8]nonadeca-1(18),4(19),5,7,14,16-hexaen-13-one], for which, in assay [1] (Table 9), the “Ent. A Max Activity” value is recorded as “+++ (+++ is >60%)” and the EC50 was less than 1000 nM. In assay [2] (Table 9), the “Ent. B Max Activity” value is reported as “+++ (+++ is >60%)” and the half-maximal effective concentration (EC50) is less than 1000 nM.

For `Cc1cccc(C)c1-c1cc2nc(n1)NS(=O)(=O)c1cccc(c1)C(=O)NC[C@H](c1ccc(CCC(C)(C)C)cc1)O2` (stereo in doubt) [Compound 149], in assay [1] (Table 9), the “Ent. A Max Activity” value was “+++ (+++ is >60%)” and the concentration giving a half-maximal response (EC50) is less than 1000 nM. Also, in assay [2] (Table 9), the “Ent. B Max Activity” value is “+++ (+++ is >60%)” and the EC50 was less than 1000 nM.

Turning to `Cc1cccc(C)c1-c1cc2nc(n1)NS(=O)(=O)c1cccc(c1)C(=O)NC[C@H](c1ccc(/C=C/C(C)(C)C)cc1)O2` (stereo in doubt) [Compound 150], in assay [1] (Table 9), the “Ent. A Max Activity” value is listed as “++ (++ is 30-60%)” and the concentration giving a half-maximal response (EC50) is less than 1000 nM. In assay [2] (Table 9), the “Ent. B Max Activity” value is reported as “++ (++ is 30-60%)” and the EC50 was less than 1000 nM.

Turning to `Cc1cccc(C)c1-c1cc2nc(n1)NS(=O)(=O)c1cccc(c1)C(=O)NC[C@H](c1ccc(/C=C/C(C)(C)C)cc1)O2` (stereo in doubt) [Compound 151], in assay [1] (Table 9), the “Ent. A Max Activity” value is “+++ (+++ is >60%)” and the EC50 was less than 1000 nM. Also, in assay [2] (Table 9), the “Ent. B Max Activity” value is listed as “+++ (+++ is >60%)” and the EC50 was less than 1000 nM.

Turning to `Cc1cccc(C)c1-c1cc2nc(n1)NS(=O)(=O)c1cccc(c1)C(=O)N[C@@H](C(CC(C)C)c1ccccc1)CO2` (stereo in doubt) [Compound 181], in assay [1] (Table 9), the “Ent. A Max Activity” value is “+++ (+++ is >60%)” and the concentration giving a half-maximal response (EC50) is less than 1000 nM. For the same compound, in assay [2] (Table 9), the “Ent. B Max Activity” value is recorded as “+++ (+++ is >60%)” and the EC50 is less than 1000 nM.

Regarding `Cc1cccc(C)c1-c1cc2nc(n1)NS(=O)(=O)c1cccc(c1)C(=O)N[C@@H](C(CC(C)C)c1ccccc1)CO2` (stereo in doubt) [Compound 183], in assay [1] (Table 9), the “Ent. A Max Activity” value is reported as “+++ (+++ is >60%)” and the half-maximal effective concentration (EC50) was less than 1000 nM. Further, in assay [2] (Table 9), the “Ent. B Max Activity” value was “+++ (+++ is >60%)” and the EC50 was less than 1000 nM.

Take `Cc1cccc(C)c1-c1cc2nc(n1)NS(=O)(=O)c1cccc(c1)C(=O)N[C@@H]1CN(C3CC4(CCCC4)C3)C[C@H]1O2` [Compound 56, (3R,7R)-19-(2,6-Dimethylphenyl)-5-{spiro[3.4]octan-2-yl}-2-oxa-15λ^6-thia-5,8,16,18,21-pentaazatetracyclo[15.3.1.110,14.03,7]docosa-1(20),10(22),11,13,17(21),18-hexaene-9,15,15-trione]: in assay [1] (Table 9), the “Ent. A Max Activity” value was “+++ (+++ is >60%)” and the EC50 was less than 1000 nM. Moreover, in assay [2] (Table 9), the “Ent. B Max Activity” value was “++ (++ is 30-60%)” and the EC50 is less than 1000 nM.

For `Cc1cccc(C)c1-c1cc2nc(n1)NS(=O)(=O)c1cccc(c1)C(=O)N[C@@H]1CN(c3ccc(C(F)(F)F)cn3)C[C@H]1O2` [Compound 62, (3R,7R)-19-(2,6-Dimethylphenyl)-5-[5-(trifluoromethyl)pyridin-2-yl]-2-oxa-15λ^6-thia-5,8,16,18,21-pentaazatetracyclo[15.3.1.110,14.03,7]docosa-1(20),10(22),11,13,17(21),18-hexaene-9,15,15-trione], in assay [1] (Table 9), the “Ent. A Max Activity” value is on record as “+++ (+++ is >60%)” and the half-maximal effective concentration (EC50) is less than 1000 nM. In assay [2] (Table 9), the “Ent. B Max Activity” value is given as “++ (++ is 30-60%)” and the EC50 was less than 1000 nM.

Take `Cc1cccc(C)c1-c1cc2nc(n1)NS(=O)(=O)c1cccc(c1)C(=O)N[C@@H]1CN(Cc3ccc(C(C)(C)C)cc3)C[C@H]1O2` [Compound 63, (3R,7R)-5-[(4-tert-Butylphenyl)methyl]-19-(2,6-dimethylphenyl)-2-oxa-15λ^6-thia-5,8,16,18,21-pentaazatetracyclo[15.3.1.110,14.03,7]docosa-1(20),10(22),11,13,17(21),18-hexaene-9,15,15-trione]: in assay [1] (Table 9), the “Ent. A Max Activity” value was “+++ (+++ is >60%)” and the EC50 is less than 1000 nM. In addition, in assay [2] (Table 9), the “Ent. B Max Activity” value is on record as “+++ (+++ is >60%)” and the half-maximal effective concentration (EC50) is less than 1000 nM.

For `Cc1cccc(C)c1-c1cc2nc(n1)NS(=O)(=O)c1cccc(c1)C(=O)N[C@@H]1CN(CCC(C)(C)C)C[C@H]1O2` [Compound 64, (3R,7R)-5-(3,3-Dimethylbutyl)-19-(2,6-dimethylphenyl)-2-oxa-15λ^6-thia-5,8,16,18,21-pentaazatetracyclo[15.3.1.110,14.03,7]docosa-1(20),10(22),11,13,17(21),18-hexaene-9,15,15-trione], in assay [1] (Table 9), the “Ent. A Max Activity” value is given as “+++ (+++ is >60%)” and the EC50 is less than 1000 nM. Moreover, in assay [2] (Table 9), the “Ent. B Max Activity” value was “++ (++ is 30-60%)” and the EC50 was less than 1000 nM.

Regarding `Cc1cccc(C)c1-c1cc2nc(n1)NS(=O)(=O)c1cc(n[nH]1)C(=O)N[C@H](CC(C)C)CO2` [Compound 78, (10R)-15-(2,6-dimethylphenyl)-10-isobutyl-3,3-dioxo-12-oxa-3λ^6-thia-2,5,6,9,16,17-hexazatricyclo[11.3.1.14,7]octadeca-1(17),4(18),6,13,15-pentaen-8-one], in assay [1] (Table 9), the “Ent. A Max Activity” value was “++ (++ is 30-60%)” and the EC50 was 3000 to 30000 nM. In assay [2] (Table 9), the “Ent. B Max Activity” value was “++ (++ is 30-60%)” and the EC50 fell in the range of 3000 to 30000 nM.

With `Cc1cccc(C)c1-c1cc2nc(n1)NS(=O)(=O)c1cccc(c1)C(=O)N[C@H](C)CO2` [Compound 95, (11R)-6-(2,6-Dimethylphenyl)-11-methyl-9-oxa-2λ^6-thia-3,5,12,19-tetraazatricyclo[12.3.1.14,8]nonadeca-1(17),4,6,8(19),14(18),15-hexaene-2,2,13-trione], the “Ent. A Max Activity” value in assay [1] (Enteroid Assay A) is listed as “++ (++ is 30-60%)”. For the same compound, in assay [2] (Enteroid Assay B), the “Ent. B Max Activity” value is given as “++ (++ is 30-60%)” and the EC50 fell in the range of 3000 to 30000 nM.

Usually EC50 stands for the concentration that produces a half-maximal response.
